Reference: US6034067A, “Serine protease inhibitors” (Akzo Nobel, N.V., priority 1996, dated 2000)

Target: T1, Human thrombin (Homo sapiens, UniProt P00734)
T1 construct: purchased Centraal Laboratorium voor Bloedtransfusie, Amsterdam, The Netherlands
Experiment: Anti-thrombin assay (hydrolysis of chromogenic substrate S-2238 by thrombin)
Assay type: biochemical
Conditions: final concentration causing 50% inhibition of the maximum absorbance of the blank; S-2238 substrate, TNP buffer pH 7.4, 37° C., absorbance at 405 nm
Description: Thrombin (Factor IIa) is a factor in the coagulation cascade.
At room temperature 0.075 ml and 0.025 ml test compound or reference compound solutions or vehicle are alternately pipetted into the wells of a microtiter plate and these solutions are diluted with 0.115 ml and 0.0165 ml TNP buffer, respectively. […] The plate is incubated (with shaking for 30 s) at 37° C.
All data are collected in an IBM personal computer using LOTUS-MEASURE.

Row | Compound | IC50 [nM]
1 | N=C(N)NC(=O)CCC(NC(=O)[C@@H]1CCCN1C(=O)[C@@H](CC1CCCCC1)NCC(=O)O)C(=O)c1nccs1 (stereo partly drawn) [Example 2, HOOC-CH2 -D-Cha-Pro-Glu(guanadine)-(2-thiazolyl)] | 34
2 | CCS(=O)(=O)N[C@H](CC1CCCCC1)C(=O)N1CCC[C@H]1C(=O)NC(CCC(=O)NC(=N)N)C(=O)c1nccs1 (stereo partly drawn) [Example 4, EtSO2 -D-Cha-Pro-Glu(guanidine)-(2-thiazolyl)] | 2590
3 | CN[C@H](CC1CCCCC1)C(=O)N1CCC[C@H]1C(=O)NC(CCC(=O)NC(=N)N)C(=O)c1nccs1 (stereo partly drawn) [Example 6, N-Me-D-Cha-Pro-Glu(guanidine)-(2-thiazolyl)] | 320
